Activity calls are given as the source filed them.
What was measured:
[1] = target: Protein S100-A4 (Homo sapiens, UniProt P26447); test: S100A4-myosin IIA binding inhibitor potency, dose response, biochemical, fluorescence polarization, cherry-picked hits (AID 687001); assay type: functional
[2] = inhibitors of SNCA 5'UTR-driven reporter translation, confirmation, H4 neuroglioma cells, luminescence (AID 1988); assay type: functional, cell-based
[3] = Luminescence Cell-Based Dose Response HTS to Identify Inhibitors of 5'UTR Stem-Loop Driven Prion Protein mRNA Translation in H4 Neuroglioblastoma Cells. [Related pubchem assays: 1827 (Project Summary), 1813 (Primary HTS)]; assay type: functional
[4] = inhibitors of firefly luciferase expression or activity, dose response, H4 neuroglioma cells, luminescence (AID 1990); assay type: functional, cell-based
[5] = system: HeLa; test: HeLa cell cytotoxicity, dose response, cytotoxicity control, 24 h, cherry-picked samples (AID 504726); assay type: functional, cell-based; conditions: Homo sapiens;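 note: potency for cytotoxicity as loss of luminescence signal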
[6] = target: ORF 73 (Human herpesvirus 8, UniProt O40947); test: inhibitors of C-LANA binding to LBS DNA, dose response, biochemical, fluorescence polarization, cherry-picked samples (AID 504725); design: species or system Human gammaherpesvirus 8;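 note: fluorescence polarization of a labeled DNA duplex reporting LANA DNA binding; potency is for inhibitors that block LANA binding to the DNA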
[7] = target: Paired box protein Pax-8 (Homo sapiens, UniProt Q06710); test: inhibitors of PAX8-driven TPO luciferase reporter, dose response, RMG-I cells, cherry-pick (AID 687027); assay type: functional, cell-based;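 note: luciferase reporter driven by Pax8 target thyroperoxidase promoter measured by SteadyGlo luminescence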
[8] = target: T1, Polyadenylate-binding protein 1 (Homo sapiens, UniProt P11940); test: PABP inhibition in translation initiation, SAR follow-up (AID 435018); assay type: functional
[9] = target: Eukaryotic translation initiation factor 4H (Homo sapiens, UniProt Q15056); test: eIF4H inhibition in translation initiation, SAR follow-up (AID 435011); assay type: functional
[10] = target: NACHT, LRR and PYD domains-containing protein 1 (Homo sapiens, UniProt Q9C000); test: NALP1 inhibitors in yeast, dose response, luminescent (AID 488860); assay type: functional
[11] = system: Saccharomyces cerevisiae; test: NALP1 inhibitor project selectivity study, Caspase-1/ASC signal blockade IC50 in S. cerevisiae (AID 488863); assay type: functional, organism-based
[12] = target: T2, Sentrin-specific protease 1 (Homo sapiens, UniProt Q9P0U3); test: Dose response confirmation of small molecule inhibitors of the catalytic domain of the SUMO protease, SENP1 in a FRET assay.; assay type: functional; conditions: read-out: IC50_Mean
T2 sequence (Q9P0U3 whole entry): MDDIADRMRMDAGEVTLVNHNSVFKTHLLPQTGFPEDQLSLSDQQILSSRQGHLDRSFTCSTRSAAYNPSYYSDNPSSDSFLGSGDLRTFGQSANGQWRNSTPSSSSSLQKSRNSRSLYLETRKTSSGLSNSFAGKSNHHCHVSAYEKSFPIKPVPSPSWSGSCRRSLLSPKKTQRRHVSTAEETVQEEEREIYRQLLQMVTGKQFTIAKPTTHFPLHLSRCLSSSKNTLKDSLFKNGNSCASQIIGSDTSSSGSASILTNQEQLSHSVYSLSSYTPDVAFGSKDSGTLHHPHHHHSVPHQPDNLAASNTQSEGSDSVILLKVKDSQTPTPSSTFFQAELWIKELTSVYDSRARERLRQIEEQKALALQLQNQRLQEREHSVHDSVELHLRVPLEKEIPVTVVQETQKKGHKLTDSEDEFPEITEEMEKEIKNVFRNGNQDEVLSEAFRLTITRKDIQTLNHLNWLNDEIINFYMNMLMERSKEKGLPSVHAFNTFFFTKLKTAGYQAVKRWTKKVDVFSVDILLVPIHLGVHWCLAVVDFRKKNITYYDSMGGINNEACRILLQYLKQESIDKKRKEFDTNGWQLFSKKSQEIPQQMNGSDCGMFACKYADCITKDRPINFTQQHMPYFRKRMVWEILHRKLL

[13] = target: T1, Polyadenylate-binding protein 1; test: PABP1 MLLE–PAM2 binding inhibitor potency, dose response, biochemical, fluorescence polarization, FITC-PAM2 peptide (AID 602259); assay type: functional; conditions: read-out: IC50_Mean
[14] = target: T2, Sentrin-specific protease 1; test: potency of human SENP1 inhibitors, dose response, biochemical, kinetic FRET (AID 651697); assay type: functional; conditions: read-out: IC50_Mean
[15] = target: T1, Polyadenylate-binding protein 1; test: PABP1 MLLE–PAM2 interaction inhibitors, dose response, miRNA deadenylation inhibitor project, biochemical, fluorescence polarization, Cy5-PAM2 peptide, secondary (AID 602260); assay type: functional; conditions: read-out: IC50_Mean
[16] = target: Female germline-specific tumor suppressor gld-1 (Caenorhabditis elegans, UniProt Q17339); test: inhibitors of GLD-1 binding to TGE RNA, dose response, biochemical, fluorescence polarization, C. elegans (AID 2802);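 note: fluorescence polarization of labeled TGE RNA bound by purified gld-1 protein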
[17] = target: Protein Rev (Human immunodeficiency virus type 1 group M subtype B (isolate HXB2)(HIV-1), UniProt P04618); test: inhibitors of Rev binding to RRE RNA, dose response, biochemical, fluorescence polarization, HIV-1 (AID 434976); design: species or system Human immunodeficiency virus 1
[18] = system: T-cell; test: inhibitors of CD8+ T cell–vesicle binding, dose response, mouse 2C CD8+ T cells, flow cytometry (AID 485284); assay type: functional
[19] = target: T3, Protein skinhead-1 (Caenorhabditis elegans, UniProt P34707); assay type: functional
T3 sequence (P34707 whole entry): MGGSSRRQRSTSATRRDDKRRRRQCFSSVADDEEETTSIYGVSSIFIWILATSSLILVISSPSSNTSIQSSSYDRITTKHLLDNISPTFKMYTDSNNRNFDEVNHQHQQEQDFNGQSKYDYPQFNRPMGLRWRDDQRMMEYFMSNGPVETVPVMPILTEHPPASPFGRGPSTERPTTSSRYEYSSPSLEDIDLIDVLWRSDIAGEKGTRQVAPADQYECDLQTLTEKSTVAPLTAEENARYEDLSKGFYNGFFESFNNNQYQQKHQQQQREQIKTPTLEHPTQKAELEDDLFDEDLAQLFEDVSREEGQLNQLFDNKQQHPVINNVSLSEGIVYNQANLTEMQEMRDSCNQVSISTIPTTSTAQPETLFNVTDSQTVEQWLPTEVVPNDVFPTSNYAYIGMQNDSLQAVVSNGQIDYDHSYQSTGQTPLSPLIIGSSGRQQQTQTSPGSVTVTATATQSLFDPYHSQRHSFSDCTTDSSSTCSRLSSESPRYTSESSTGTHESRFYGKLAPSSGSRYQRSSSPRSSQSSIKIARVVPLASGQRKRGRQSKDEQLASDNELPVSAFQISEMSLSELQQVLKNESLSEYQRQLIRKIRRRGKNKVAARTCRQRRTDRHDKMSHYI

[20] = target: Acyl-homoserine lactone acylase PvdQ (Pseudomonas aeruginosa (strain LESB58), UniProt Q9I194); test: P. aeruginosa PvdQ acylase inhibitors, dose response, biochemical, fluorescence, plate reader and imaging, cherry-picks (AID 493231)
[21] = target: T4, Kappa-type opioid receptor (Homo sapiens, UniProt P41145); test: SAR analysis of Antagonists of the Kappa Opioid Receptor (KOR) using an Image-Based Assay - Set 4. [Related pubchem assays (depositor defined):AID1777, AID1785]; assay type: functional
[22] = target: T5, Delta-type opioid receptor (Homo sapiens, UniProt P41143); test: SAR Analysis of Antagonists of the DOR Receptor using an Image-Based Assay - Set 3. [Related pubchem assays (depositor defined):AID1777, AID1785]; assay type: functional
[23] = target: T4, Kappa-type opioid receptor; test: SAR analysis of small molecule antagonists of the kappa opioid receptor via a luminescent beta-arrestin assay - Set 6. [Related pubchem assays (depositor defined):AID1777, AID1778, AID1785, AID1786, AID1966, AID2133, AID2136, AID2285]; assay type: functional
[24] = target: T4, Kappa-type opioid receptor; test: SAR analysis of small molecule antagonists of the kappa opioid receptor via a luminescent beta-arrestin assay - Set 4. [Related pubchem assays (depositor defined):AID1777, AID1778, AID1785, AID1786, AID1966, AID2133, AID2136, AID2285]; assay type: functional
[25] = target: T6, Mu-type opioid receptor (Homo sapiens, UniProt P35372); test: SAR Analysis of Antagonists of the MOR Receptor using an Image-Based Assay - Set 3. [Related pubchem assays (depositor defined):AID1777, AID1785, AID1786, AID1966, AID2133, AID2136, AID2284, AID2285, AID2420]; assay type: functional
[26] = target: Melanin-concentrating hormone receptor 1 (Homo sapiens, UniProt Q99705); test: Late-stage fluorescence-based counterscreen for antagonists of the G-protein coupled receptor 7 (GPR7): cell-based dose response assay to identify antagonists of the melanin-concentrating hormone receptor 1 (MCHR1). [Related pubchem assays (depositor defined):AID1861, AID1880, AID1952, AID2148, AID2251, AID2257, AID485339]; assay type: functional;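 note: stimulated with 30 nM MCH peptide agonist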
[27] = target: T4, Kappa-type opioid receptor; assay type: functional
[28] = target: T6, Mu-type opioid receptor; test: HTS Image-Based Screen for Agonists of the MOR Receptor. [Related pubchem assays (depositor defined):AID1777, AID1785, AID1786, AID2133]; assay type: functional
[29] = target: T5, Delta-type opioid receptor; test: HTS Image-Based Screen for Agonists of the DOR Receptor. [Related pubchem assays (depositor defined):AID1777, AID1786, AID2133]; assay type: functional
[30] = target: T4, Kappa-type opioid receptor; assay type: functional; remark: listed apart in the source
[31] = target: T7, Beta-galactosidase (Escherichia coli, UniProt Q8VNN2); assay type: functional
[32] = target: E3 ubiquitin-protein ligase Mdm2/Protein Mdm4 (Homo sapiens, UniProt O15151+Q00987); test: Mdm2-MdmX interaction inhibitors, dose response, luminescence detection (AID 504593); assay type: functional
[33] = system: Vero; test: host cell cytotoxicity of antiviral hits, dose response, cytotoxicity control for West Nile virus antiviral project, secondary assay (AID 1650); assay type: functional; conditions: Chlorocebus sabaeus
[34] = target: T5, Delta-type opioid receptor; test: HTS Image-Based Screen for Antagonists of the DOR Receptor. [Related pubchem assays (depositor defined):AID1777, AID1785, AID1786, AID2133]; assay type: functional
[35] = target: T7, Beta-galactosidase; test: beta-galactosidase enzyme inhibitors and activators, dose response, artefact control for CCR6 antagonist project, biochemical, E. coli enzyme, set 3 (AID 504712); assay type: functional
[36] = cells; assay type: functional, cell-based
[37] = cells; assay type: functional, cell-based; remark: listed apart in the source
[38] = target: C-C chemokine receptor type 6 (Homo sapiens, UniProt P51684); test: CCR6 receptor antagonists, dose response, cell-based, luminescent beta-arrestin readout (AID 504728); assay type: functional
[39] = system: Vero; test: cells; assay type: functional; conditions: Chlorocebus sabaeus

T1 sequence (P11940 whole entry): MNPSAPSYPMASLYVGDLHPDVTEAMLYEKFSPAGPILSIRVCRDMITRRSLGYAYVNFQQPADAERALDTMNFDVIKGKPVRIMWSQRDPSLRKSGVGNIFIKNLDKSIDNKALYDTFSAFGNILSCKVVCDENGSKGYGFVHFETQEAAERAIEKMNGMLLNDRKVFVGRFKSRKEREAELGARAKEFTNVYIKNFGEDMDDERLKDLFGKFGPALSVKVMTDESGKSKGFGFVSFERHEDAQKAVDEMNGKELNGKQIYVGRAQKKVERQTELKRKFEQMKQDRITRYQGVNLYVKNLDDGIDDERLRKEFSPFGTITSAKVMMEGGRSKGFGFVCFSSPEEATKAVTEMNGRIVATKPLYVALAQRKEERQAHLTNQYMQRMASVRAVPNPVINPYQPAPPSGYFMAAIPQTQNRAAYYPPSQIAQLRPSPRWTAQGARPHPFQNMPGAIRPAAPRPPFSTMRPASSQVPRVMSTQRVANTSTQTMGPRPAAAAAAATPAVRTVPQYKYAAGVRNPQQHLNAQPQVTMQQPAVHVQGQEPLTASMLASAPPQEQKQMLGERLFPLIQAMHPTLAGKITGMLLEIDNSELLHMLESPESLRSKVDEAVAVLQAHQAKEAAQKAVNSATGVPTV
T4 sequence (P41145 whole entry): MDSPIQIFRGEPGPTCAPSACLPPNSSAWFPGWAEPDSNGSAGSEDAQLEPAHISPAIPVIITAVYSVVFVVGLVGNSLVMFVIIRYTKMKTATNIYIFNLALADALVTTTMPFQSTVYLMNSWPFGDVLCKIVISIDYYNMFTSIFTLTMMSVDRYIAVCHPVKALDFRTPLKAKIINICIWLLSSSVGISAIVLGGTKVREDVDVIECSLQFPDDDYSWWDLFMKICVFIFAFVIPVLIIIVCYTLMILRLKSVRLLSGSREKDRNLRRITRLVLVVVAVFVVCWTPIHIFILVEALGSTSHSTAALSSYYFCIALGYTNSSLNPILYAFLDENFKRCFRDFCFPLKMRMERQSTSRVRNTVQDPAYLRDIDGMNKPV
T5 sequence (P41143 whole entry): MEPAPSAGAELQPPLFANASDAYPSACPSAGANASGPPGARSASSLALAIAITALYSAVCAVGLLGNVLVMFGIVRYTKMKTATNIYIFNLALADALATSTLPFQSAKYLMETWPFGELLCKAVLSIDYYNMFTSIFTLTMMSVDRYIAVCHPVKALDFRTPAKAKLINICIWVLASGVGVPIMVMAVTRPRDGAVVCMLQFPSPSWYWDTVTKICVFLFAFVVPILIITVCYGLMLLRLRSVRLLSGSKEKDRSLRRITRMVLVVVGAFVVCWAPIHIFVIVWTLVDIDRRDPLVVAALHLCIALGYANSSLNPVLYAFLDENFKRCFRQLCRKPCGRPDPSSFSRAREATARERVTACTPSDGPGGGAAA
T7 sequence (Q8VNN2 whole entry): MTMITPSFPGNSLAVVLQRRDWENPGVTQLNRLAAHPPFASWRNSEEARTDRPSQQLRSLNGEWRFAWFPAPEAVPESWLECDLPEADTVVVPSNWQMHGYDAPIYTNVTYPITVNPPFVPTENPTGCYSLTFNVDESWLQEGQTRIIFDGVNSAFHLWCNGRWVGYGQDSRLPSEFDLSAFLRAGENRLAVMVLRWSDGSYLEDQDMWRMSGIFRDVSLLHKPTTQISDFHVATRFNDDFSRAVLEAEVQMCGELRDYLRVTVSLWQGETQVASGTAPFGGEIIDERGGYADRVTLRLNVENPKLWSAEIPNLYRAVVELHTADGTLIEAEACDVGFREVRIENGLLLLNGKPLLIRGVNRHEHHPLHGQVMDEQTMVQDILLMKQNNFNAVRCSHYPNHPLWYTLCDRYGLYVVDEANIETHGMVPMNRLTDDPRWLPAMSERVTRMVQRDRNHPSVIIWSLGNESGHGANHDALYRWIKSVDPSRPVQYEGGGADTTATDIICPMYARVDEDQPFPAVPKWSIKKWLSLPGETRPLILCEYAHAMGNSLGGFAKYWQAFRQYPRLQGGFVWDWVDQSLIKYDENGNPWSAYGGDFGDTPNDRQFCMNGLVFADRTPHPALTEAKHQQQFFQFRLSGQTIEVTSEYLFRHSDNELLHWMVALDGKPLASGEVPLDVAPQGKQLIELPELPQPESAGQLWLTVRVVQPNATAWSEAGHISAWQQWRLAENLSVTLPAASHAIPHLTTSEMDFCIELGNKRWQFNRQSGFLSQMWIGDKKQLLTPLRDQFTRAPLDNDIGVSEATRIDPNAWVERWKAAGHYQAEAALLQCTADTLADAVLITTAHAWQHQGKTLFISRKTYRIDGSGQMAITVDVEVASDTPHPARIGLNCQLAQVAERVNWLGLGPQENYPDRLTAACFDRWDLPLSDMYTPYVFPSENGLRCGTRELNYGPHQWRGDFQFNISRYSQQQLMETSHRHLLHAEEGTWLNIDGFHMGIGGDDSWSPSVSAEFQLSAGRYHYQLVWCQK
T6 sequence (P35372 whole entry): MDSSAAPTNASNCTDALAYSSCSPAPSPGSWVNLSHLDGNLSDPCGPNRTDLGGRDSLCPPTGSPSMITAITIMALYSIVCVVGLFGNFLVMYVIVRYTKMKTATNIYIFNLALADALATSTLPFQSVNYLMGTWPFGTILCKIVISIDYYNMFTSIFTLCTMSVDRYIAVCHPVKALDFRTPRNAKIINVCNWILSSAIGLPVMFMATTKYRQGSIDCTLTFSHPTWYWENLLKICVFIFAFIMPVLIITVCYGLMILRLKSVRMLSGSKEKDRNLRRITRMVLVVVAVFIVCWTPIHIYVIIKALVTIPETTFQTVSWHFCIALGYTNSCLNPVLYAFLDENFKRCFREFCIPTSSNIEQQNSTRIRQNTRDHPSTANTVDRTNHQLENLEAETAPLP
Chain of C-C chemokine receptor type 6 (P51684 whole entry): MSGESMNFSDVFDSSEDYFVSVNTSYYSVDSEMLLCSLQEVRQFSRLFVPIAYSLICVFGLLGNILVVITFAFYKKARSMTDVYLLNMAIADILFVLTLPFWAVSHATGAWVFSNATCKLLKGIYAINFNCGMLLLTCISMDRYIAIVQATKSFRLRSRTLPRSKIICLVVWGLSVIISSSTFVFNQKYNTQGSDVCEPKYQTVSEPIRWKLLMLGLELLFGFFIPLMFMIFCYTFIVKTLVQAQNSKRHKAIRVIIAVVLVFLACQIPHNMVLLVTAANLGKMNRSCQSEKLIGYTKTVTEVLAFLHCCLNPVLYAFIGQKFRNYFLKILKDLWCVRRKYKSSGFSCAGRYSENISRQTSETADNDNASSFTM
Chain of Acyl-homoserine lactone acylase PvdQ (Q9I194 24-193 limits assumed): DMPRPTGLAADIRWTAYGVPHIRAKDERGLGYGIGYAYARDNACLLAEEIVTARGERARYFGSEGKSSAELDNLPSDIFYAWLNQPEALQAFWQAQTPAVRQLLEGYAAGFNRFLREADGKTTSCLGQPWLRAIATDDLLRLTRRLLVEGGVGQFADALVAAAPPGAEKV
Chain of Acyl-homoserine lactone acylase PvdQ (Q9I194 217-762 limits assumed): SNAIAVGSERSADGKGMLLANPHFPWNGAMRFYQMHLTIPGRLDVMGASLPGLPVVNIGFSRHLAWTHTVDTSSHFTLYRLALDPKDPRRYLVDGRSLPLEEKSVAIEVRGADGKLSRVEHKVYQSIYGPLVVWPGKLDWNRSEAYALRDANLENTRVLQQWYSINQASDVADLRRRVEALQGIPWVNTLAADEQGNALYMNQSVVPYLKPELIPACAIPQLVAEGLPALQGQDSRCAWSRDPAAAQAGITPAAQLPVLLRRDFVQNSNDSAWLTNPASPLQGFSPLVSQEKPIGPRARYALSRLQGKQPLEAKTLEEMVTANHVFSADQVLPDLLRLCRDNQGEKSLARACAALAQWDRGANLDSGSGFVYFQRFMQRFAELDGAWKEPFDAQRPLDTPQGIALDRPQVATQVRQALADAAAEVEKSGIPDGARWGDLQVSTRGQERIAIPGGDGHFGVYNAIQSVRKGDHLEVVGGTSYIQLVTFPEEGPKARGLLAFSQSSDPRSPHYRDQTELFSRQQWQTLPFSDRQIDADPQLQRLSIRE
Chain of ORF 73 (O40947 whole entry): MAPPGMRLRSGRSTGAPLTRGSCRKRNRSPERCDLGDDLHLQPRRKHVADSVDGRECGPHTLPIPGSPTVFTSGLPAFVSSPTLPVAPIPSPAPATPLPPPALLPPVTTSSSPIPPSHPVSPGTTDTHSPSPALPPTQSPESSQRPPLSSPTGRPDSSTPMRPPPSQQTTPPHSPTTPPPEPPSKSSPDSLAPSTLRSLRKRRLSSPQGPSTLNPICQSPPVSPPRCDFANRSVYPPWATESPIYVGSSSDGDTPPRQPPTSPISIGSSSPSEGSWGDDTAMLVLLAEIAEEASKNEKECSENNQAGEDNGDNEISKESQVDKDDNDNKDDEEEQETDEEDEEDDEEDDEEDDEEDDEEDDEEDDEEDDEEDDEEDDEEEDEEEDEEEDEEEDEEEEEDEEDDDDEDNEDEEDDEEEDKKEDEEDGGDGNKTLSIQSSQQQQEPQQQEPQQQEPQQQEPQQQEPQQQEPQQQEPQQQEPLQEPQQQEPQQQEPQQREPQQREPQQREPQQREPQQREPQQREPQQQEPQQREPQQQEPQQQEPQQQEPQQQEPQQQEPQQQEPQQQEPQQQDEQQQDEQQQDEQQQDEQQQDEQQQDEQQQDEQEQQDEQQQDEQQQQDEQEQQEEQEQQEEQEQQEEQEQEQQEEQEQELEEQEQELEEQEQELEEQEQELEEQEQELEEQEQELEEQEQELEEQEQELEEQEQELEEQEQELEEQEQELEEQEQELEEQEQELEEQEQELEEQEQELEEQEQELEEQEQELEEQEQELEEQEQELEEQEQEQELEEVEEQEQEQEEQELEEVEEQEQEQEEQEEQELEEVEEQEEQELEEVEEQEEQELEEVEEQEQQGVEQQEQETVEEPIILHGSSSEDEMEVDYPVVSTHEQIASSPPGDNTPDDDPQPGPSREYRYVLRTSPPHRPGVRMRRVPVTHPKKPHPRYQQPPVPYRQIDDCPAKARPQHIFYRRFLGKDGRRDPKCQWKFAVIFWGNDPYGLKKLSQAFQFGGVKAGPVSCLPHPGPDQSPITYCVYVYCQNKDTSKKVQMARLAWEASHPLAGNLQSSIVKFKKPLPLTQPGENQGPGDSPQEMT

COc1cccc2c1C(=O)c1c(O)c3c(c(O)c1C2=O)C[C@](O)(C(C)=O)C[C@H]3O[C@@H]1C[C@@H](N)[C@@H](O)[C@@H](C)O1
AC50 [1]: 0.29 µM (active) | EC50 [2]: < 0.1 µM (active) | EC50 [3]: 0.102 µM (active) | EC50 [4]: < 0.1 µM (active) | AC50 [5]: 3.2 µM (active) | AC50 [6]: 3.01 µM (active) | AC50 [7]: 2.84 µM (active)

CCc1nnc(NC(=O)CSc2ccc(-c3ccco3)nn2)s1
IC50 [8]: 64.4 µM (active) | IC50 [9]: 9.04 µM (active)

COc1ccccc1N1CCN(CCCCCCOc2ccc(F)cc2)CC1
IC50 [10]: 9.66 µM (active) | IC50 [11]: 13.2 µM (active)

O=C1C=C(O)c2cccc3cccc1c23
IC50 [12]: 8.55 µM (active) | IC50 [13]: 34.5 µM (inactive) | IC50 [14]: 13.1 µM (active) | IC50 [15]: 33.1 µM (inactive) | IC50 [16]: 6.13 µM (active) | IC50 [17]: 13.9 µM (not active)

Cc1ccc(O)c(CCc2ccccc2)n1
EC50 [18]: 9.49 µM (active)

Clc1ccc(-c2nnc(-c3ccco3)o2)cc1
IC50 [19]: 17.2 µM (active) | AC50 [20]: 24.3 µM (active)

CC(C)N(CCNC(=O)c1ccc(CNS(=O)(=O)c2ccc3ccccc3c2)cc1)Cc1ccccc1
IC50 [21]: 0.16 µM (active) | IC50 [22]: 31.3 µM (inactive) | IC50 [23]: 5.52 µM (active) | IC50 [24]: 2.33 µM (active) | IC50 [25]: > 32 µM (inactive)

O=C(C1CCCCN1Cc1ccccc1)N1CCN(c2ccc([N+](=O)[O-])cc2)CC1 (configuration not stated)
IC50 [26]: 11.3 µM (inactive)

O=[N+]([O-])c1ccccc1S(=O)(=O)Nc1cccc2cccnc12
EC50 [2]: > 120 µM (not active) | IC50 [27]: > 32 µM | EC50 [3]: 11.6 µM (active) | EC50 [28]: > 32 µM (inactive) | EC50 [29]: > 32 µM (inactive) | EC50 [4]: 14.1 µM (active) | IC50 [30]: 7.84 µM (active) | EC50 [31]: > 31.5 µM (inactive) | IC50 [32]: 3.73 µM (active) | CC50 [33]: 8.6 µM (active) | IC50 [34]: > 32 µM (inactive)

Cc1cc(C)nc(N/N=C/C2=C(O)CC(c3ccc(F)cc3)CC2=O)n1 (configuration not stated)
IC50 [35]: > 66.6 µM (inactive) | EC50 [36]: 15.9 µM (active) | EC50 [37]: > 350 µM (not active) | IC50 [38]: > 66.6 µM (inactive) | CC50 [39]: > 25 µM (active)

Reference: ChEMBL document CHEMBL1201862, “PubChem BioAssay data set” (2004)
